Where two headings read alike, the source gives them in different places. Each block holds one compound with its values, some of them ahead of it.
Assays:
yeast α-glucosidase [1] = target: T1, yeast α-glucosidase (Saccharomyces cerevisiae, UniProt P53341); assay: biochemical; format: biochemical; details: for diminished inhibitory activity relative to compound 11d: replacement of methoxy substituent of 11d
yeast α-glucosidase [2] = target: T1, yeast α-glucosidase; assay: Kinetic study of α-glucosidase inhibition (Lineweaver–Burk plots); format: biochemical; details: for mechanism of α-glucosidase inhibition: Lineweaver–Burk plots, both Vmax and Km decreased; for Ki: Lineweaver–Burk secondary plot, substrate p-nitrophenyl-glucopyranoside 1–4 mM
Excerpt: Then, the Lineweaver-Burke plots were depicted using by the reciprocal of velocity and substrate concentration (Fig. 5).

[3] = tested on: normal human dermal fibroblast (HDF) cell line; assay: In vitro cytotoxicity assay; format: cell-based; details: HDF cells, 50 μM concentration
Experimental: To assess of the cytotoxic effects of the new synthesized compounds, cytotoxicity of compounds 11d and 11n as the representative compounds was evaluated against the normal human dermal fibroblast (HDF) cell line.
Evaluation of cytotoxic effects of the synthesized compounds 11d and 11n was performed exactly based on our previous report.

[4] = read-out: IC50 (anti-α-glucosidase activity)

T1 sequence (P53341 whole entry): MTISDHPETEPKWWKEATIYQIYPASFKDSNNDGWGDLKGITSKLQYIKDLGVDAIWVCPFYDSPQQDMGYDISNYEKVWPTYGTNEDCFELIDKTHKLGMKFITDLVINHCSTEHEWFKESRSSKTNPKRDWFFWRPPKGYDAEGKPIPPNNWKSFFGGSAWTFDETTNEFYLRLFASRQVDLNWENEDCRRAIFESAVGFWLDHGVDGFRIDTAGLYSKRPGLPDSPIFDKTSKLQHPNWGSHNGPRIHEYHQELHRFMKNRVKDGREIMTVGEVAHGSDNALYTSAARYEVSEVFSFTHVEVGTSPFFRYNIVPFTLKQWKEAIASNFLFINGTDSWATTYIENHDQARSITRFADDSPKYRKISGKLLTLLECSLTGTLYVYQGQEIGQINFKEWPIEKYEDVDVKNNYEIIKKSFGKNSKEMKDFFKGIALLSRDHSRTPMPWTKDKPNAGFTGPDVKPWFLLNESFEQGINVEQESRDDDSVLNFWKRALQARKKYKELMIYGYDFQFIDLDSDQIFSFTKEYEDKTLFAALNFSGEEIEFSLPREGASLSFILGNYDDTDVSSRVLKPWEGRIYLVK

IC50 (yeast α-glucosidase [1]; [4]): 15.2 ± 0.18 µM
melting point: 194 to 196 °C
SMILES: O=C(Cn1cc(COc2ccc(/C=N/NC(=O)c3cc4ccccc4[nH]3)cc2)nn1)Nc1ccccc1 [Compound 11a, (E)-2-(4-((4-((2-(1H-indole-2-carbonyl)hydrazono)methyl)phenoxy)methyl)-1H-1,2,3-triazol-1-yl)-N-phenylacetamide]

SMILES: Cc1ccccc1NC(=O)Cn1cc(COc2ccc(/C=N/NC(=O)c3cc4ccccc4[nH]3)cc2)nn1 [Compound 11b, (E)-2-(4-((4-((2-(1H-indole-2-carbonyl)hydrazono)methyl)phenoxy)methyl)-1H-1,2,3-triazol-1-yl)-N-(o-tolyl)acetamide]
mechanism of α-glucosidase inhibition (yeast α-glucosidase [2]): uncompetitive inhibitors
Ki (yeast α-glucosidase [2]): 8.5 µM
IC50 (yeast α-glucosidase [1]; [4]): 8.88 ± 0.07 µM

SMILES: Cc1ccc(NC(=O)Cn2cc(COc3ccc(/C=N/NC(=O)c4cc5ccccc5[nH]4)cc3)nn2)cc1 [Compound 11c, (E)-2-(4-((4-((2-(1H-indole-2-carbonyl)hydrazono)methyl)phenoxy)methyl)-1H-1,2,3-triazol-1-yl)-N-(p-tolyl)acetamide]
IC50 (yeast α-glucosidase [1]; [4]): 19.12 ± 0.08 µM
diminished inhibitory activity relative to compound 11d (yeast α-glucosidase [1]): 3 folds

SMILES: COc1ccc(NC(=O)Cn2cc(COc3ccc(/C=N/NC(=O)c4cc5ccccc5[nH]4)cc3)nn2)cc1 [Compound 11d, (E)-2-(4-((4-((2-(1H-indole-2-carbonyl)hydrazono)methyl)phenoxy)methyl)-1H-1,2,3-triazol-1-yl)-N-(4-methoxyphenyl)acetamide]
mechanism of α-glucosidase inhibition (yeast α-glucosidase [2]): uncompetitive inhibitors
Ki (yeast α-glucosidase [2]): 6.3 µM
times more potent than acarbose (yeast α-glucosidase [1]; ratio of IC50 values vs acarbose): 118.8 times
IC50 (yeast α-glucosidase [1]; [4]): 6.31 ± 0.03 µM
cytotoxicity on normal cell line [3]: non-cytotoxic

SMILES: O=C(Cn1cc(COc2ccc(/C=N/NC(=O)c3cc4ccccc4[nH]3)cc2)nn1)Nc1ccccc1Cl [Compound 11e, (E)-2-(4-((4-((2-(1H-indole-2-carbonyl)hydrazono)methyl)phenoxy)methyl)-1H-1,2,3-triazol-1-yl)-N-(2-chlorophenyl)acetamide]
IC50 (yeast α-glucosidase [1]): 26.97 ± 0.25 µM
melting point: > 250 °C

SMILES: O=C(Cn1cc(COc2ccc(/C=N/NC(=O)c3cc4ccccc4[nH]3)cc2)nn1)Nc1ccc(Cl)cc1 [Compound 11f, (E)-2-(4-((4-((2-(1H-indole-2-carbonyl)hydrazono)methyl)phenoxy)methyl)-1H-1,2,3-triazol-1-yl)-N-(4-chlorophenyl)acetamide]
IC50 (yeast α-glucosidase [1]; [4]): 9.53 ± 0.12 µM
diminished inhibitory activity relative to compound 11d (yeast α-glucosidase [1]): 1.5 folds
melting point: 174 to 176 °C

SMILES: O=C(Cn1cc(COc2ccc(/C=N/NC(=O)c3cc4ccccc4[nH]3)cc2)nn1)Nc1ccc(Br)cc1 [Compound 11g, (E)-2-(4-((4-((2-(1H-indole-2-carbonyl)hydrazono)methyl)phenoxy)methyl)-1H-1,2,3-triazol-1-yl)-N-(4-bromophenyl)acetamide]
IC50 (yeast α-glucosidase [1]; [4]): 49.89 ± 0.09 µM
diminished inhibitory activity relative to compound 11d (yeast α-glucosidase [1]): 8 folds

SMILES: Cc1cc(NC(=O)Cn2cc(COc3ccc(/C=N/NC(=O)c4cc5ccccc5[nH]4)cc3)nn2)ccc1[N+](=O)[O-] [Compound 11h, (E)-2-(4-((4-((2-(1H-indole-2-carbonyl)hydrazono)methyl)phenoxy)methyl)-1H-1,2,3-triazol-1-yl)-N-(3-methyl-4-nitrophenyl)acetamide]
IC50 (yeast α-glucosidase [1]): 35.11 ± 0.07 µM
melting point: 200 to 202 °C

SMILES: COc1cc(/C=N/NC(=O)c2cc3ccccc3[nH]2)ccc1OCc1cn(CC(=O)Nc2ccccc2)nn1 [Compound 11i, (E)-2-(4-((4-((2-(1H-indole-2-carbonyl)hydrazono)methyl)-2-methoxyphenoxy)methyl)-1H-1,2,3-triazol-1-yl)-N-phenylacetamide]
IC50 (yeast α-glucosidase [1]): 11.3 ± 0.15 µM

IC50 (yeast α-glucosidase [1]; [4]): 24.19 ± 0.1 µM
SMILES: COc1ccc(NC(=O)Cn2cc(COc3ccc(/C=N/NC(=O)c4cc5ccccc5[nH]4)cc3OC)nn2)cc1 [Compound 11j, (E)-2-(4-((4-((2-(1H-indole-2-carbonyl)hydrazono)methyl)-2-methoxyphenoxy)methyl)-1H-1,2,3-triazol-1-yl)-N-(4-methoxyphenyl)acetamide]

IC50 (yeast α-glucosidase [1]; [4]): 31.56 ± 0.12 µM
melting point: 184 to 186 °C
SMILES: COc1cc(/C=N/NC(=O)c2cc3ccccc3[nH]2)ccc1OCc1cn(CC(=O)Nc2ccc(Cl)cc2)nn1 [Compound 11k, (E)-2-(4-((4-((2-(1H-indole-2-carbonyl)hydrazono)methyl)-2-methoxyphenoxy)methyl)-1H-1,2,3-triazol-1-yl)-N-(4-chlorophenyl)acetamide]

SMILES: COc1cc(/C=N/NC(=O)c2cc3ccccc3[nH]2)ccc1OCc1cn(CC(=O)Nc2cccc(Cl)c2Cl)nn1 [Compound 11l, (E)-2-(4-((4-((2-(1H-indole-2-carbonyl)hydrazono)methyl)-2-methoxyphenoxy)methyl)-1H-1,2,3-triazol-1-yl)-N-(2,3-dichlorophenyl)acetamide]
IC50 (yeast α-glucosidase [1]): 18.2 ± 0.81 µM

SMILES: COc1cc(/C=N/NC(=O)c2cc3ccccc3[nH]2)ccc1OCc1cn(CC(=O)Nc2cc(Cl)cc(Cl)c2)nn1 [Compound 11m, (E)-2-(4-((4-((2-(1H-indole-2-carbonyl)hydrazono)methyl)-2-methoxyphenoxy)methyl)-1H-1,2,3-triazol-1-yl)-N-(3,5-dichlorophenyl)acetamide]
IC50 (yeast α-glucosidase [1]): 14.2 ± 0.21 µM
melting point: 247 to 249 °C

SMILES: COc1cc(/C=N/NC(=O)c2cc3ccccc3[nH]2)ccc1OCc1cn(CC(=O)Nc2ccc(Br)cc2)nn1 [Compound 11n, (E)-2-(4-((4-((2-(1H-indole-2-carbonyl)hydrazono)methyl)-2-methoxyphenoxy)methyl)-1H-1,2,3-triazol-1-yl)-N-(4-bromophenyl)acetamide]
mechanism of α-glucosidase inhibition (yeast α-glucosidase [2]): uncompetitive inhibitors
Ki (yeast α-glucosidase [2]): 8.3 µM
IC50 (yeast α-glucosidase [1]; [4]): 8.3 ± 0.16 µM
cytotoxicity on normal cell line [3]: non-cytotoxic

SMILES: COc1cc(/C=N/NC(=O)c2cc3ccccc3[nH]2)ccc1OCc1cn(CC(=O)Nc2cccc([N+](=O)[O-])c2Cl)nn1 [Compound 11o, (E)-2-(4-((4-((2-(1H-indole-2-carbonyl)hydrazono)methyl)-2-methoxyphenoxy)methyl)-1H-1,2,3-triazol-1-yl)-N-(2-chloro-3-nitrophenyl)acetamide]
IC50 (yeast α-glucosidase [1]): 12.67 ± 0.05 µM
melting point: > 250 °C
